Results taken from the supplement of paper PMC13380429.
± gives the standard deviation of the averaged measurements.

Tests used:
Details in all cases: 72 h
[1] = tested on: U2OS; experiment: cell viability relative to DMSO; higher = less toxic
[2] = tested on: Calu-3; experiment: as above
[3] = tested on: Caco-2; experiment: as above
[4] = tested on: Vero E6; experiment: as above
[5] = tested on: HepG2; experiment: as above
[6] = tested on: U2OS; experiment: drug sensitivity score (DSS) for viability; higher = more toxic; extreme values may be limits of the assay
[7] = tested on: Calu-3; experiment: as above
[8] = tested on: Caco-2; experiment: as above
[9] = tested on: Vero E6; experiment: as above
[10] = tested on: HepG2; experiment: as above
[11] = tested on: U2OS; experiment: relative viability EC50 (midpoint between 100% and the lowest measured viability); higher = less toxic
[12] = tested on: Calu-3; experiment: as above
[13] = tested on: Caco-2; experiment: as above
[14] = tested on: Vero E6; experiment: as above
[15] = tested on: HepG2; experiment: as above

Structure (SMILES)	cell viability ([1]; 1 nM)	cell viability ([1]; 10 nM)	cell viability ([1]; 100 nM)	cell viability ([1]; 1000 nM)	cell viability ([1]; 10000 nM)	cell viability ([2]; 1 nM)	cell viability ([2]; 10 nM)	cell viability ([2]; 100 nM)	cell viability ([2]; 1000 nM)	cell viability ([2]; 10000 nM)	cell viability ([3]; 1 nM)	cell viability ([3]; 10 nM)	cell viability ([3]; 100 nM)	cell viability ([3]; 1000 nM)	cell viability ([3]; 10000 nM)	cell viability ([4]; 1 nM)	cell viability ([4]; 10 nM)	cell viability ([4]; 100 nM)	cell viability ([4]; 1000 nM)	cell viability ([4]; 10000 nM)	cell viability ([5]; 1 nM)	cell viability ([5]; 10 nM)	cell viability ([5]; 100 nM)	cell viability ([5]; 1000 nM)	cell viability ([5]; 10000 nM)	drug sensitivity score [6]	drug sensitivity score [7]	drug sensitivity score [8]	drug sensitivity score [9]	drug sensitivity score [10]	relative viability EC50 [11]	relative viability EC50 [12]	relative viability EC50 [13]	relative viability EC50 [14]	relative viability EC50 [15]
Cc1ncc(COP(=O)([O-])[O-])c(CN(CCN(CC(=O)O)Cc2c(COP(=O)([O-])O)cnc(C)c2O)CC(=O)O)c1O.[Mn].[Na+].[Na+].[Na+] [Mangafodipir (trisodium)]	95.1%	100%	94.7%	93.4%	101%	91.5%	107%	104%	87.6%	103%	95.1%	99.5%	94.5%	108%	135%	111%	99.7%	107%	97%	99.2%	110%	89.4%	105%	101%	98.4%	0	0	0	0	0	> 10 µM	> 10 µM	> 10 µM	> 10 µM	> 10 µM
Cc1cc(=O)n(-c2ccccc2)[nH]1 [N-demethylantipyrine]	101%	99.7%	98.7%	102%	98.5%	102%	107%	98.5%	97%	106%	99.3%	97.2%	102%	84.8%	99.8%	104%	101%	94.2%	95.2%	102%	94.1%	106%	95.3%	107%	93.8%	0	0	0	0	0	> 10 µM	> 10 µM	> 10 µM	> 10 µM	> 10 µM
CN[C@H](CC(=O)O)C(=O)O [NMDA]	95.1%	96.8%	91.7%	102%	91.5%	85.4%	88.6%	87.7%	105%	89.4%	101%	97.5%	103%	103%	88%	107%	107%	104%	99.5%	107%	99.9%	102%	110%	104%	102%	0	0	0	0	0	> 10 µM	> 10 µM	> 10 µM	> 10 µM	> 10 µM
On1ncc(C2CCNCC2)c1-c1cccc(-c2ccccc2)c1 [PHP-501]	95.5%	102%	98.1%	109%	106%	106%	102%	91.1%	97.1%	107%	100%	97.3%	93%	102%	94.6%	97.7%	92.1%	92%	89.9%	111%	108%	99.6%	105%	97.4%	100%	0	0	0	0	0	> 10 µM	> 10 µM	> 10 µM	> 10 µM	> 10 µM
[N-]=[N+]=N[C@]1(CO)O[C@@H](n2ccc(N)nc2=O)[C@H](O)[C@@H]1O [R-1479]	98 ± 0.85%	102 ± 2.8%	102 ± 1.3%	105 ± 2.5%	100 ± 0.14%	91.35 ± 0.78%	99.5 ± 4.4%	102.8 ± 0.78%	100 ± 2.3%	93 ± 1.5%	98.2 ± 3.6%	96.2 ± 4%	90.7%	98.6 ± 11%	96.7 ± 9.1%	99 ± 3.8%	96.4 ± 1.7%	97.8 ± 1.7%	94.5 ± 2.8%	103 ± 6.7%	112 ± 7.2%	94.25 ± 0.92%	98.3 ± 2.8%	94.7 ± 1.7%	96.2 ± 3.6%	0	0	0	0	0	> 10 µM	> 10 µM	> 10 µM	> 10 µM	> 10 µM
COc1cc2c(cc1O)C(CCc1ccc(Cl)cc1)N(C)CC2 (stereo not given) [Ro-04-5595]	100%	96.2%	95.8%	95.1%	97.9%	93%	94.6%	102%	96.6%	92.1%	102%	97.2%	94.4%	100%	102%	106%	108%	101%	102%	90.1%	103%	101%	102%	99%	80.1%	0	0	0	0	0.7	> 10 µM	> 10 µM	> 10 µM	> 10 µM	> 10 µM
Cc1ncc(CN2CC=C(c3ccccc3)CC2)c(N)n1 [Ro-10-5824]	101%	95.3%	102%	95.8%	96.9%	103%	95.6%	103%	99.5%	99.5%	102%	105%	96.8%	97.1%	96.8%	92.7%	108%	88.5%	99.2%	108%	91.8%	104%	108%	115%	112%	0	0	0	0	0	> 10 µM	> 10 µM	> 10 µM	> 10 µM	> 10 µM
